Consider 38 compounds from article PMC7380166, “How to Study the Metabolism of New Psychoactive Substances for the Purpose of Toxicological Screenings—A Follow-Up Study Comparing Pooled Human Liver S9, HepaRG Cells, and Zebrafish Larvae” (Frontiers in Chemistry, 2020).

The subject of series [1] is zebrafish larvae. Put plainly: Zebrafish larvae exposure, metabolite identification by LC-HRMS/MS. Particulars: larvae 4 dpf, 24 h, larvae extract, one replicate of n = 3, n.d. = not detected; for Absolute peak area, Zebrafish larvae [25 μM]: 25 μM 4F-MDMB-BINACA in medium; for Absolute peak area, Zebrafish larvae [100 µM]: 100 µM parent NPS in medium.
Series [2] deals with HepaRG cells. The experiment in a line: Incubations with HepaRG cells, metabolite identification by LC-HRMS/MS. Type of series: in vitro ADME, human. Particulars: 24 h, cell culture medium, one replicate of n = 3, n.d. = not detected; for Absolute peak area, HepaRG [25 μM]: 25 μM parent NPS; for Absolute peak area, HepaRG [250 μM]: 250 μM parent NPS.
The conditions of series [3]: n = 2, according to literature, cited from earlier work.
[4] abbreviates: ephylone and metabolites, ref Wagmann et al., 2019a.
The mark [5] stands for this setting: 1P-LSD and metabolites, ref Wagmann et al., 2019b.
Setting [6] is: 3,4-DMA-NBOMe and metabolites, ref Caspar et al., 2018.
[7] abbreviates: 4F-PHP and metabolites, ref Wagmann et al., 2019a.

Molecules are shown by their SMILES. Like-named read-outs stand apart in the source and are kept apart here.

With `CC1(C)COC(=O)[C@H]1NC(=O)c1n[nH]c2ccccc12` [MB2], in series [1], the “Absolute peak area, Zebrafish larvae [25 μM]” value was 5.13E+05.
In the case of `CC(C)(C)[C@H](NC(=O)c1nn(CCCC(=O)O)c2ccccc12)C(=O)O` [MB10], in series [2], the “Absolute peak area, HepaRG [25 μM]” value worked out at 1.68E+05 and the “Absolute peak area, HepaRG [250 μM]” value is given as 8.32E+05. Further, in series [1], the “Absolute peak area, Zebrafish larvae [25 μM]” value turned out to be 5.72E+04.
As for `CC1(CO)COC(=O)[C@H]1NC(=O)c1nn(CCCCF)c2ccccc12` (stereo partly shown) [MB12], the “Absolute peak area, Zebrafish larvae [25 μM]” value in series [1] was determined as 1.68E+06.
Turning to `CC(C)(C)[C@H](NC(=O)c1nn(CCCCF)c2ccccc12)C(=O)O[C@@H]1O[C@H](C(=O)O)[C@@H](O)[C@H](O)[C@H]1O` [MB22], in series [2], the “Absolute peak area, HepaRG [25 μM]” value was 2.56E+07 and the “Absolute peak area, HepaRG [250 μM]” value came out at 3.25E+07.
Turning to `COC(=O)C(NC(=O)c1nn(CCCC(=O)OC2OC(C(=O)O)C(O)C(O)C2O)c2ccccc12)C(C)(C)C` (stereo not shown) [MB24], the “Absolute peak area, Zebrafish larvae [25 μM]” value in series [1] worked out at 2.34E+05.
Still for that read-out and setting: next, `COC(=O)C(NC(=O)c1nn(CCCCF)c2ccccc12)C(C)(C)COC1OC(C(=O)O)C(O)C(O)C1O` (stereo not shown) [MB25]: 1.75E+07.
Regarding `CCCC(NCC)C(O)c1ccc2c(c1)OCO2` (stereo not shown) [ME5], the “Absolute peak area, Zebrafish larvae [100 µM]” value (shortened to “Absolute peak area … [100 µM]”) in series [1] was 7.64E+06. Moreover, the “Detection in pHLS9 [25 µM]” value in series [3] (setting [4]) is on record as “+”.
For the compound `CCCC(C(=O)c1ccc2c(c1)OCO2)N(O)CC` (stereo not shown) [ME7], the “Absolute peak area, HepaRG [250 μM]” value in series [2] came out at 1.75E+06. Further, the “Absolute peak area … [100 µM]” value in series [1] was found to be 1.10E+06. Besides, the “Detection in pHLS9 [25 µM]” value in series [3] (setting [4]) is recorded as “+”.
On to `CN1C[C@H](C(N)=O)C=C2c3cccc4[nH]cc(c34)C[C@H]21` [ML1], for which the “Absolute peak area, HepaRG [250 μM]” value in series [2] is recorded as 1.93E+06.
Regarding `CN1C[C@H](C(=O)O)C=C2c3cccc4[nH]cc(c34)C[C@H]21` [ML2], in series [2], the “Absolute peak area, HepaRG [25 μM]” value came out at 5.16E+06 and the “Absolute peak area, HepaRG [250 μM]” value came to 1.39E+07. Moreover, the “Absolute peak area … [100 µM]” value in series [1] is listed as 3.63E+05.
For `CCNC(=O)[C@@H]1C=C2c3cccc4[nH]cc(c34)C[C@H]2NC1` [ML3], in that order: 3.89E+05, 2.20E+06 and 3.30E+05.
Take `CCNC(=O)[C@@H]1C=C2c3cccc4[nH]cc(c34)C[C@H]2N(C)C1` [ML4]: in series [2], the “Absolute peak area, HepaRG [25 μM]” value is recorded as 3.19E+07 and the “Absolute peak area, HepaRG [250 μM]” value is 2.58E+08. Moreover, the “Absolute peak area … [100 µM]” value in series [1] amounted to 6.17E+07. Moreover, the “Detection in pHLS9 [25 µM]” value in series [3] (setting [5]) is “+”.
Consider `CCN(CC)C(=O)[C@@H]1C=C2c3cccc4[nH]cc(c34)C[C@H]2NC1` [ML5], for which, in series [2], the “Absolute peak area, HepaRG [25 μM]” value came out at 1.75E+07 and the “Absolute peak area, HepaRG [250 μM]” value came to 3.37E+07. Also, the “Absolute peak area … [100 µM]” value in series [1] came to 1.07E+07. Also, in series [3] (setting [5]), the “Detection in pHLS9 [25 µM]” value was “+”.
Regarding `CCC(=O)n1cc2c3c(cccc31)C1=C[C@@H](C(=O)O)CN(C)[C@@H]1C2` [ML8], the “Absolute peak area … [100 µM]” value in series [1] was 1.07E+06.
Same read-out and setting: next, `CCN(CC)C(=O)C1C=C2c3cccc4[nH]cc(c34)C(O)C2NC1` (stereo not shown) [ML10]: 6.10E+04; `CCNC(=O)[C@@H]1C=C2c3cccc4c3c(cn4C(=O)CC)C[C@H]2NC1` [ML12]: 4.11E+05.
`CCN(CCO)C(=O)C1C=C2c3cccc4[nH]cc(c34)CC2N(C)C1` (stereo not shown) [ML14]: in series [2], the “Absolute peak area, HepaRG [25 μM]” value is given as 4.01E+05 and the “Absolute peak area, HepaRG [250 μM]” value worked out at 4.63E+06. Moreover, the “Absolute peak area … [100 µM]” value in series [1] is 3.90E+06.
Take `CCNC(=O)[C@@H]1C=C2c3cccc4c3c(cn4C(=O)CC)C[C@H]2N(C)C1` [ML17]: the “Absolute peak area … [100 µM]” value in series [1] stood at 1.48E+08. In addition, the “Detection in pHLS9 [25 µM]” value in series [3] (setting [5]) is on record as “+”.
Take `CCN(CC)C(=O)[C@@H]1C=C2c3cccc4c3C(O)(C[C@H]2N(C)C1)C(=O)N4` (stereo partly shown) [ML18, 2−oxo−3−hydroxy LSD]: in series [2], the “Absolute peak area, HepaRG [25 μM]” value was 7.00E+06 and the “Absolute peak area, HepaRG [250 μM]” value was 3.67E+06. Further, the “Absolute peak area … [100 µM]” value in series [1] is 6.93E+06. Also, the “Detection in pHLS9 [25 µM]” value in series [3] (setting [5]) was “+”.
`CCC(=O)n1cc2c3c(cccc31)C1=C[C@@H](C(=O)N(CC)CC)CN[C@@H]1C2` [ML20]: in series [2], the “Absolute peak area, HepaRG [25 μM]” value is recorded as 3.19E+04 and the “Absolute peak area, HepaRG [250 μM]” value stood at 3.74E+06. Also, the “Absolute peak area … [100 µM]” value in series [1] turned out to be 3.77E+07. For the same compound, the “Detection in pHLS9 [25 µM]” value in series [3] (setting [5]) is listed as “+”.
With `CCC(=O)n1cc2c3c(cccc31)C1=C[C@@H](C(=O)N(CC)CCO)CN(C)[C@@H]1C2` [ML23], the “Absolute peak area … [100 µM]” value in series [1] amounted to 3.31E+07.
Still for that read-out and setting: then `CCC(=O)n1cc2c3c(cccc31)C1=C[C@@H](C(=O)N(CC)CC)CN(C)[C@@H]1C2O` (stereo partly shown) [ML24], with 3.37E+07.
On to `CCN(CCOC1OC(C(=O)O)C(O)C(O)C1O)C(=O)C1C=C2c3cccc4[nH]cc(c34)CC2N(C)C1` (stereo not shown) [ML28], for which the “Absolute peak area, HepaRG [250 μM]” value in series [2] is listed as 1.07E+05.
With `COc1ccc(CC(C)N)cc1OC` (stereo not shown) [MN1], in series [2], the “Absolute peak area, HepaRG [25 μM]” value was 4.04E+07 and the “Absolute peak area, HepaRG [250 μM]” value was 9.84E+07. Further, the “Absolute peak area … [100 µM]” value in series [1] worked out at 3.29E+07. The “Detection in pHLS9 [25 µM]” value in series [3] (setting [6]) is given as “+”.
For `COc1ccccc1CNC(C)Cc1ccc(O)c(O)c1` (stereo not shown) [MN2], the “Detection in pHLS9 [25 µM]” value in series [3] (setting [6]) is reported as “+”.
With `COc1ccc(CC(C)NCc2ccccc2O)cc1OC` (stereo not shown) [MN7], in series [2], the “Absolute peak area, HepaRG [25 μM]” value is 1.19E+07 and the “Absolute peak area, HepaRG [250 μM]” value was 1.17E+08. Further, the “Absolute peak area … [100 µM]” value in series [1] is listed as 1.19E+08. The “Detection in pHLS9 [25 µM]” value in series [3] (setting [6]) is recorded as “+”.
Consider `COc1ccc(CC(C)N(O)Cc2ccccc2O)cc1OC` (stereo not shown) [MN9], for which the “Absolute peak area … [100 µM]” value in series [1] came to 3.57E+05.
For `COc1ccccc1CN(O)C(C)Cc1ccc(OC)c(OC)c1` (stereo not shown) [MN12], in series [2], the “Absolute peak area, HepaRG [250 μM]” value is on record as 4.60E+05. Besides, the “Absolute peak area … [100 µM]” value in series [1] amounted to 8.81E+06.
As for `COc1ccc(CC(C)NCc2ccccc2O[C@@H]2O[C@H](C(=O)O)[C@@H](O)[C@H](O)[C@H]2O)cc1OC` (stereo partly shown) [MN22], the “Detection in pHLS9 [25 µM]” value in series [3] (setting [6]) is “+”.
In the case of `CCCCC(N)C(=O)c1ccc(F)cc1` (stereo not shown) [MP1], in series [2], the “Absolute peak area, HepaRG [25 μM]” value was determined as 1.48E+05 and the “Absolute peak area, HepaRG [250 μM]” value amounted to 1.82E+06. In addition, the “Absolute peak area … [100 µM]” value in series [1] is listed as 4.83E+05. In series [3] (setting [7]), the “Detection in pHLS9 [25 µM]” value was “+”.
Turning to `CCCCC(C(O)c1ccc(F)cc1)N1CCCC1` (stereo not shown) [MP2], in series [2], the “Absolute peak area, HepaRG [25 μM]” value is 1.18E+07 and the “Absolute peak area, HepaRG [250 μM]” value is recorded as 6.41E+07. Besides, the “Absolute peak area … [100 µM]” value in series [1] was 2.98E+07. In addition, in series [3] (setting [7]), the “Detection in pHLS9 [25 µM]” value is listed as “+”.
Turning to `CCCCC(C(=O)c1ccc(F)cc1)N1CCC(=O)C1` (stereo not shown) [MP3], in series [1], the “Absolute peak area … [100 µM]” value is recorded as 7.58E+04.
In the case of `CCCCC(C(=O)c1ccc(F)cc1)N1CCCC1=O` (stereo not shown) [MP4], in series [1], the “Absolute peak area … [100 µM]” value amounted to 8.64E+05. In addition, in series [3] (setting [7]), the “Detection in pHLS9 [25 µM]” value was “+”.
`CC(O)CCC(C(=O)c1ccc(F)cc1)N1CCCC1` (stereo not shown) [MP5]: in series [2], the “Absolute peak area, HepaRG [25 μM]” value was found to be 1.14E+06 and the “Absolute peak area, HepaRG [250 μM]” value came to 1.07E+07. The “Absolute peak area … [100 µM]” value in series [1] was determined as 7.71E+06. The “Detection in pHLS9 [25 µM]” value in series [3] (setting [7]) was “+”.
For `CCCCC(C(=O)c1ccc(F)cc1)[N+]1([O-])CCCC1` (stereo not shown) [MP8], the “Absolute peak area, HepaRG [250 μM]” value in series [2] is recorded as 1.47E+05. Moreover, the “Absolute peak area … [100 µM]” value in series [1] was found to be 2.50E+06.
With `CC(O)CCC(C(O)c1ccc(F)cc1)N1CCCC1` (stereo not shown) [MP9], in series [2], the “Absolute peak area, HepaRG [25 μM]” value was 8.15E+05 and the “Absolute peak area, HepaRG [250 μM]” value is reported as 6.48E+06. For the same compound, in series [1], the “Absolute peak area … [100 µM]” value is reported as 3.78E+07.
In the case of `CCCCC(C(O[C@@H]1O[C@H](C(=O)O)[C@@H](O)[C@H](O)[C@H]1O)c1ccc(F)cc1)N1CCCC1` (stereo partly shown) [MP10], the “Absolute peak area, HepaRG [250 μM]” value in series [2] is 2.91E+04. Besides, the “Detection in pHLS9 [25 µM]” value in series [3] (setting [7]) is “+”.
Turning to `CC(CCC(C(=O)c1ccc(F)cc1)N1CCCC1)OC1OC(C(=O)O)C(O)C(O)C1O` (stereo not shown) [MP11], the “Absolute peak area … [100 µM]” value in series [1] came to 1.15E+06. In addition, the “Detection in pHLS9 [25 µM]” value in series [3] (setting [7]) is listed as “+”.
